# From ChEMBL document CHEMBL1130769, “Use of the 1,2,5-thiadiazolidin-3-one 1,1 dioxide and isothiazolidin-3-one 1,1 dioxide scaffolds in the design of potent inhibitors of serine proteinases” (Bioorg Med Chem Lett, 1998)
# How the values were obtained:
# [1] = biological target: T1, Neutrophil elastase (Homo sapiens) (UniProt P08246); assay: Compound was evaluated for inhibitory activity against human leukocyte elastase
# T1 sequence (whole entry): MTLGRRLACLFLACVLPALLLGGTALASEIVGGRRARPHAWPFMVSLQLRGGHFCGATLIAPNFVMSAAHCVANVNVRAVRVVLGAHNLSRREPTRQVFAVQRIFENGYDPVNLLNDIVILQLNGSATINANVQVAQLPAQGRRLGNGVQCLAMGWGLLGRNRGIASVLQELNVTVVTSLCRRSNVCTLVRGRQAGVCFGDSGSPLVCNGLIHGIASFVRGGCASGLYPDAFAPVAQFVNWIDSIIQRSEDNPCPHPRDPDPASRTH
# [2] = biological target: T2, Myeloblastin (Homo sapiens) (UniProt P24158); assay: Compound was evaluated for inhibitory activity against Proteinase 3
# T2 sequence (whole entry): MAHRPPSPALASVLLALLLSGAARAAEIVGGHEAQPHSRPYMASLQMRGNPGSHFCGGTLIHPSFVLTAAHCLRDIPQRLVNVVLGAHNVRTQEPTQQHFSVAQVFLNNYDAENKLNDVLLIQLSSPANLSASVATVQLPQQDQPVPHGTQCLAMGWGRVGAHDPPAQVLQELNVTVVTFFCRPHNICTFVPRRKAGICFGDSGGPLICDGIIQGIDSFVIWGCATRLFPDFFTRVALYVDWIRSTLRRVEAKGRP
# [3] = biological target: T3, Cathepsin G (Homo sapiens) (UniProt P08311); assay: Compound was evaluated for inhibitory activity towards Cathepsin G
# T3 sequence (whole entry): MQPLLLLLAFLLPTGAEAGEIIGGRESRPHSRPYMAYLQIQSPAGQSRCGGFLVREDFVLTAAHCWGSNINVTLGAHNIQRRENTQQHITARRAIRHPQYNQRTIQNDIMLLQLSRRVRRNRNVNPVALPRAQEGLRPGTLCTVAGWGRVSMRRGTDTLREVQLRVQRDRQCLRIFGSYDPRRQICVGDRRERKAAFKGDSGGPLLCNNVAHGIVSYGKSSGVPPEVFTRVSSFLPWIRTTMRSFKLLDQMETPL
Compound,K inact/Ki [1] [M⁻¹ s⁻¹],K inact/Ki [2] [M⁻¹ s⁻¹],K inact/Ki [3] [M⁻¹ s⁻¹]
CCCCOP(=O)(OCCCC)OCN1C(=O)C(CC(C)C)N(C)S1(=O)=O (centres undefined),2.7e+06,,
CCCCOP(=O)(OCCCC)OCN1C(=O)C(CC(C)C)N(CC2C=CC=C2)S1(=O)=O (centres undefined),2.5e+06,,
COP(=O)(OC)OCN1C(=O)C(CC(C)C)N(CC2C=CC=C2)S1(=O)=O (centres undefined),430000,,
CC(C)CC1CS(=O)(=O)N(COP(=O)(OCc2ccccc2)OCc2ccccc2)C1=O (centres undefined),95000,,
CC(C)CC1C(=O)N(COP(=O)(OCc2ccccc2)OCc2ccccc2)S(=O)(=O)N1Cc1ccccc1 (centres undefined),6e+06,89100,120
CCCCOP(=O)(OCCCC)OCN1C(=O)C(CC(C)C)CS1(=O)=O (centres undefined),82000,,
CC(C)CC1C(=O)N(COP(=O)(Oc2ccccc2)Oc2ccccc2)S(=O)(=O)N1CC1C=CC=C1 (centres undefined),4.2e+06,,
